Several values for one entry are separate records, joined by “and”; a condition that tells them apart may be missing. Equal values may be shown once. Read-outs that look alike come from different tables or passages of the source.
What was measured:
[1] = system: naturally aged C57BL6J mice; format: in vivo, mouse
senescent foreskin cells = assay: Survival of senescent human cells treated with supernatant (secreted fluid) from death-induced cells, Example 13; format: cell-based; conditions: senescent treated cells; for viability at 30 µM: Homo sapiens, 72 h
[2] = system: naturally aged C57BL6J mice; assay: Hot plate joint pain test in naturally aged mice, Example 21-12, Table 27; format: in vivo, mouse; conditions: hot plate 55° C., untreated aged 6.9 (±1.8)
Procedure: (§1) 22-month-old female C57BL6J mice (KRIBB Laboratory Animal Resource Center) were acclimated to the experimental environment for one week, after which the aged mice were randomly assigned to experimental and control groups. Eight-week-old, non-aged mice served as controls. LX-403 was mixed in a 10% ethanol solution of PEG400 and administered orally at a concentration of 25 mg/kg daily for 21 days, or administered to the skin, joints, or eyes at a concentration of 1 μM. LX-1801 was mixed in distilled water with 4% DMSO, 30% PEG300, and 5% Tween80 and administered to the skin, joints, or eyes at a concentration of 0.4 μM daily for 21 days. LX-2001 was mixed in PBS and administered to the skin, joints, or eyes at a concentration of […] daily for 21 days. LX-2002 was mixed in distilled water with 4% DMSO, 30% PEG300, and 5% Tween80 and administered to the skin, joints, or eyes at a concentration of 2 μM daily for 21 days. […] LX-2005 was mixed in distilled water with 4% DMSO, 30% PEG300, and 5% Tween80 and administered to the skin, joints, or eyes at a concentration of 90 μM daily for 21 days. LX-2007 was mixed in distilled water with 4% DMSO, 30% PEG300, and 5% Tween80 and administered to the skin, joints, or eyes at a concentration of 90 μM daily for 21 days. […] LX-3002 was mixed in distilled water with 4% DMSO, 30% PEG300, and 5% Tween80 and administered orally at a concentration of 10 mg/kg daily for 21 days. […] LX-5411 was mixed in 5% PBS and administered orally at a concentration of 10 mg/kg daily for 21 days or administered to the skin, joints, or eyes at a concentration of 3 μM. LX-5701 was mixed in PBS and administered orally at a concentration of 360 mg/kg daily for 21 days. LX-6807 was mixed in saline and administered intraperitoneally at a concentration of 1 mg/kg daily for 21 days. LX-2101 or LX-2102 was mixed in PBS solution with 5% DMSO and administered intraperitoneally at a concentration of 20 mg/kg or 10 mg/kg, respectively, daily for 21 days. The control group received only the solution in the same volume. After the end of drug administration, the methods described in each example below were performed.
RNA was extracted from joint tissue as described in Example 7-2 of WO2023-085787 A1, and qRT-PCR was performed using the synthesized cDNA. […] To analyze joint pain due to joint aging, hotplate analysis was performed. Specifically, thermal pain thresholds were measured using a hot plate. After acclimating mice to a temperature of 30° C. for 10 minutes, the time required for hind paw licking or jumping responses to occur at 55° C. was measured. To prevent tissue damage, the response was measured for less than 30 seconds, and the average value was used from five measurements.

[3] = system: HMGN1 secreted from senescent A549 cells; assay: HMGN1 secretion (ELISA) from senescent A549 cancer cells, Example 12; format: cell-based, human; conditions: senescent untreated = 100%; 30 μM; 90 μM for LX-305, 905, 1302, 1601, 1603, 2003, 2702, 2901, 3106; 270 μM for LX-1103, 2005, 2007;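 also: A549 cells made senescent by doxorubicin exposure, with DMSO-treated cells serving as the non-senescent control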
Procedure: Cells were treated with doxorubicin or control (DMSO) and cultured.

[4] = system: naturally aged C57BL6J mice; assay: Skin aging (dermal thickness, COL1A1 and SDF1 mRNA, hair loss) in naturally aged mice, Example 21-10, Table 25; format: in vivo, mouse; conditions: for Dermal Thickness (μm): mouse, in vivo
Procedure: as §1
Frozen sections of skin tissue were stained with Hematoxylin/Eosin (H/E), and the dermal thickness was observed under an optical microscope. Furthermore, the mRNA levels of collagen (COL1A1), a skin component, and SDF1, which suppresses age-related pigmentation, were measured using qRT-PCR as described in Example 7-2 of WO2023-085787 A1. […] Furthermore, biweekly examinations were performed to assess the onset of hair loss due to aging.

[5] = system: NaIO3-induced retinal degenerative C57BL6J mice; assay: NaIO3 retinal degeneration in mice (p16 mRNA, outer nuclear layer thickness), Example 29, Table 53; format: in vivo, mouse; conditions: daily for 21 days; for Outer nuclear layer thickness: untreated 27.4 (±1.3); for p16 mRNA: untreated 100%
Procedure: Then, retinal degenerative diseases were induced for more than 7 days by intravenous administration of 20 mg/kg of NaIO3, an oxidizing agent that induces retinal pigment epithelial cell death and retinal degeneration. Mice with retinal degenerative diseases were randomly assigned to experimental and control groups. […] The control group received only the solution in the same volume. […] In addition, frozen sections of the other eye tissue were stained with H/E (Hematoxylin/Eosin), and the thickness of the outer nuclear layer (ORL) was observed under an optical microscope. […] The mRNA amount after aging induction was calculated as 100% and compared with the mRNA amount of p16 after treatment with the test compound.

[6] = system: naturally aged C57BL6J mice; assay: Cataract incidence in naturally aged mice, Example 21-15, Table 30; format: in vivo, mouse; conditions: orally twice a week, 360 mg/kg, until death, untreated aged 83
Procedure: as §1
Cataracts, which occur with age, are a disease that causes visual impairment due to clouding of the lens and are a major cause of blindness. The mice of Example 21-1 were treated with the test compound mixed in PBS orally twice a week at a concentration of 360 mg/kg. Cataract development was assessed biweekly until death.

[7] = after 7 days, 6 mm punch dorsal skin wounds, naturally aged mice, untreated aged 3.2 (±0.4)
[8] = Table 8, supernatant from dying senescent cells treated at 30, 90 or 270 μM (as Example 11)
[9] = naturally aged mice, untreated aged = 100
[10] = skin, naturally aged mice, untreated aged = 1

CC1(C)CC[C@]2(NC(=O)C(C)(F)F)CC[C@]3(C)[C@H](C(=O)C=C4[C@@]5(C)C=C(C#N)C(=O)C(C)(C)[C@@H]5CC[C@]43C)[C@@H]2C1 [LX-2101, Omaveloxolone]
Wound size (mm) [1, 7]: 1.9 (±0.3) mm | Survival (senescent foreskin cells; [8]): 39.7 | Response time (s) [2]: 5.1 (±0.4) s | HMGN1 [3]: 297% | Dermal Thickness (μm) [4]: 224 (±11.1) μm and 251 (±15.1) μm | Relative area of hair loss (%) [4, 9]: 82 (±8.9) % | Col1a1 mRNA (Fold) [4, 10]: 2.5 (±0.2) Fold | SDF1 mRNA (fold) [4, 10]: 1.4 (±0.3) fold | Col1a1 mRNA (Fold) ([4]; topical): 2.2 (±0.2) Fold | Relative area of hair loss (%) ([4]; topical): 79 (±4.1) % | SDF1 mRNA (fold) ([4]; topical): 1.9 (±0.3) fold | Outer nuclear layer thickness [5]: 29.4 (±7.5) μm and 39 (±4.1) μm | p16 mRNA [5]: 80 (±2.7) % and 67 (±7.0) % | Cataract incidence (%) [6]: 77%

CCCC\C=C/C=C/C=C\CCCCCCCC(=O)O [LX-2707, Punicic acid]
Wound size (mm) [1, 7]: 2.7 (±0.3) mm | Response time (s) [2]: 5.4 (±0.6) s | Dermal Thickness (μm) [4]: 237 (±19.4) μm | Outer nuclear layer thickness [5]: 31.8 (±1.7) μm | p16 mRNA [5]: 76 (±5.4) % | Cataract incidence (%) [6]: 48%

C[C@@H]1CC[C@@]23C[C@H](O)C(=O)[C@@]2(O)[C@]1(C)[C@H](OC(=O)CCl)C[C@@H](C1=CCn2c(=O)n(-c4ccccc4)c(=O)n2C1)[C@@H]3C [LX-1801, (2S,3aS,4S,5R,7R,8S,8aS,11R)-7-(1,3-Dioxo-2-phenyl-2,3,5,8-tetrahydro-1H-[1,2,4]triazolo[1,2-a]pyridazin-6-yl)-2,3a-dihydroxy-4,8,11-trimethyl-3-oxooctahydro-1H-4,8a-propanoazulen-5-yl 2-Chloroacetate]
Wound size (mm) [1, 7]: 2.5 (±0.6) mm | Survival (senescent foreskin cells; [8]): 41.6 | Response time (s) [2]: 4.9 (±1.1) s | HMGN1 [3]: 295% | Dermal Thickness (μm) [4]: 222 (±37.4) μm | Relative area of hair loss (%) [4, 9]: 82 (±6.6) % | Col1a1 mRNA (Fold) [4, 10]: 2.0 (±0.2) Fold | SDF1 mRNA (fold) [4, 10]: 2.1 (±0.2) fold | Outer nuclear layer thickness [5]: 32.7 (±2.6) μm | p16 mRNA [5]: 42 (±4.4) % | Cataract incidence (%) [6]: 68%

CC1(C)CC[C@]2(C(=O)O)CC[C@]3(C)C(=CC[C@@H]4[C@@]5(C)CC[C@H](O)C(C)(C)[C@@H]5CC[C@]43C)[C@@H]2C1 [LX-2003, Oleanolic acid]
Wound size (mm) [1, 7]: 2.6 (±0.6) mm | Survival (senescent foreskin cells; [8]): 64.2 | Response time (s) [2]: 5.1 (±0.7) s | HMGN1 [3]: 218% | Dermal Thickness (μm) [4]: 235 (±56.3) μm | Relative area of hair loss (%) [4, 9]: 71 (±2.2) % | Col1a1 mRNA (Fold) [4, 10]: 2.3 (±0.4) Fold | SDF1 mRNA (fold) [4, 10]: 1.7 (±0.1) fold | Outer nuclear layer thickness [5]: 31.2 (±8.7) μm | p16 mRNA [5]: 52 (±6.3) % | Cataract incidence (%) [6]: 69%

C#CC(=O)N1[C@@H](CCCC)Cc2cc(OC)ccc2[C@@H]1c1ccc(NC23CC4CC(CC(C4)C2)C3)cc1 [LX-5411]
Wound size (mm) [1, 7]: 1.6 (±0.1) mm | Response time (s) [2]: 4.7 (±0.4) s | Dermal Thickness (μm) [4]: 231 (±27.1) μm | Relative area of hair loss (%) [4, 9]: 64 (±4.8) % | Col1a1 mRNA (Fold) [4, 10]: 2.7 (±0.1) Fold | SDF1 mRNA (fold) [4, 10]: 2.3 (±0.2) fold | Outer nuclear layer thickness [5]: 43.7 (±4.2) μm | p16 mRNA [5]: 43 (±2.5) % | Cataract incidence (%) [6]: 61%

O=C1C2CCN(CC2)C1CNC(=O)C(F)(F)F (centres unmarked) [LX-5701]
Wound size (mm) ([1]; mouse, in vivo): 1.9 (±0.2) mm | Response time (s) [2]: 4.6 (±1.3) s | Dermal Thickness (μm) [4]: 239 (±16.4) μm | Relative area of hair loss (%) [4, 9]: 71 (±8.4) % | Col1a1 mRNA (Fold) [4, 10]: 1.9 (±0.1) Fold | SDF1 mRNA (fold) [4, 10]: 1.7 (±0.3) fold | Outer nuclear layer thickness [5]: 52.7 (±3.2) μm | p16 mRNA [5]: 67 (±7.3) % | Cataract incidence (%) [6]: 64%

COC(=O)[C@H]1Cc2c([nH]c3ccccc23)[C@H](c2ccc(S(C)(=O)=O)cc2)N1C(=O)CCl [LX-5401, methyl (1S,3R)-2-(2-chloroacetyl)-1-(4-(methylsulfonyl)phenyl)-2,3,4,9-tetrahydro-1H-pyrido[3,4-b]indole-3-carboxylate]
Wound size (mm) [1, 7]: 2.3 (±0.3) mm | Response time (s) [2]: 5.9 (±0.2) s | Dermal Thickness (μm) [4]: 222 (±26.3) μm | Cataract incidence (%) [6]: 69%

S=C(N/N=C1\CCCc2cccnc21)N1CCN(c2ccccn2)CC1 [LX-801]
Survival (senescent foreskin cells; [8]): 52.7 | HMGN1 [3]: 329%

COC(=O)[C@]12CCC(C)(C)C[C@H]1[C@H]1C(=O)C=C3[C@@]4(C)C=C(C#N)C(=O)C(C)(C)[C@@H]4CC[C@@]3(C)[C@]1(C)CC2 [LX-2102, Bardoxolone methyl]
wound/damage healing improvement ([1]; mouse, in vivo): damage treatment and recovery | Survival (senescent foreskin cells; [8]): 46.3 | HMGN1 [3]: 233% | Dermal Thickness (μm) [4]: 234 (±9.6) μm | Col1a1 mRNA (Fold) ([4]; topical): 2.0 (±0.2) Fold | Relative area of hair loss (%) ([4]; topical): 89 (±7.5) % | SDF1 mRNA (fold) ([4]; topical): 1.3 (±0.1) fold

COC(=O)c1ccc([C@H]2c3[nH]c4ccccc4c3C[C@H](C(=O)OC)N2C(=O)CCl)cc1 [LX-405]
viability at 30 µM (senescent foreskin cells; supernatant from death-induced proliferating cells, 3 days): 41.3% | viability at 30 µM (senescent foreskin cells; supernatant from death-induced senescent cells, 3 days): 52.7% | Survival (senescent foreskin cells; supernatant from No Cells, 3 days): 102.8 (±4.6) % | HMGN1 [3]: 310%

Cc1cccc([C@H](C)c2cnc[nH]2)c1C [LX-6807, Dexmedetomidine]
Wound size (mm) [1, 7]: 1.7 (±0.1) mm | Response time (s) [2]: 4.8 (±0.4) s | Dermal Thickness (μm) [4]: 267 (±22.4) μm | Relative area of hair loss (%) [4, 9]: 72 (±3.8) % | Col1a1 mRNA (Fold) [4, 10]: 3.2 (±0.2) Fold | SDF1 mRNA (fold) [4, 10]: 2.1 (±0.2) fold | Outer nuclear layer thickness [5]: 50.8 (±3.2) μm | p16 mRNA [5]: 64 (±4.4) % | Cataract incidence (%) [6]: 61%

Reference: patent publication US20260306460A1, “COMPOSITION FOR REMOVING AND INHIBITING SENESCENT CELLS, AND USES THEREOF” (LIFECEUTIX CO., LTD., priority 2023, published 2026)
